How the values were obtained:
[1] = Selectivity ratio of Ki for recombinant cannabinoid CB1 receptor to Ki for recombinant cannabinoid CB2 receptor
Cannabinoid receptor 2 = Cannabinoid receptor 2 (Homo sapiens, UniProt P34972); test: Inhibition of beta-arrestin binding to recombinant cannabinoid CB2 receptor
[2] = AUC in rat at 10 mg/kg; type: ADME, organism-based; parameters: dose 10 mg/kg; conditions: plasma

Chain of Cannabinoid receptor 2 (P34972 whole entry): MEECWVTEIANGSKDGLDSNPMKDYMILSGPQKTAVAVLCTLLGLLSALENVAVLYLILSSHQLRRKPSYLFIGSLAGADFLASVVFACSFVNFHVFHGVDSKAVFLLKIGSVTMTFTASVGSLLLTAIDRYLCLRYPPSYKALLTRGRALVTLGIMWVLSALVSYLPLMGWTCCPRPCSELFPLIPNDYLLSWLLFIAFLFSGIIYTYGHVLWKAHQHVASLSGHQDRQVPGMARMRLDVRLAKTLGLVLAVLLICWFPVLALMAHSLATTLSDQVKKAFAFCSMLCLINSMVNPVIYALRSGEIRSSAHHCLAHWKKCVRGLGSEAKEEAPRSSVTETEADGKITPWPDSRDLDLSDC

SMILES	Ratio Ki [1]	Ki (Cannabinoid receptor 2) [nM]	AUC [2] [µM·h]
O=S(=O)(c1ccccc1F)c1ncccc1S(=O)(=O)N1CCC(CNS(=O)(=O)C(F)(F)F)CC1	126	790	–
O=S(=O)(c1cc2ccccc2n1S(=O)(=O)c1ccccc1F)N1CCC2(CC(NS(=O)(=O)C(F)(F)F)C2)C1 (configuration not stated)	117	452	–
CC(C)(NS(=O)(=O)C(F)(F)F)C1CCN(S(=O)(=O)c2cc3ccccc3n2S(=O)(=O)c2ccccc2F)CC1	171	171	–
C[C@H]1C[C@H](CNS(=O)(=O)C(F)(F)F)CCN1S(=O)(=O)c1cc2ccccc2n1S(=O)(=O)c1ccccc1F	334	16	–
CN(C)c1ncccc1S(=O)(=O)n1c(S(=O)(=O)N2CCC(CNS(=O)(=O)C(F)(F)F)CC2)cc2ccccc21	126	23	–
CCCC1(CNS(=O)(=O)C(F)(F)F)CCN(S(=O)(=O)c2cc3ccccc3n2S(=O)(=O)c2ccccn2)CC1	26400	1.6	17.6
O=S(=O)(c1cc2ccccc2n1S(=O)(=O)c1ccccc1F)N1CCC2(CC1)CN(S(=O)(=O)C(F)(F)F)C2	12	8430	–
O=S(=O)(c1cc2ccccc2n1S(=O)(=O)c1ccccc1F)N1CC(CCNS(=O)(=O)C(F)(F)F)C1	11	249	–
CC(C)C1(CNS(=O)(=O)C(F)(F)F)CCCN(S(=O)(=O)c2cc3ccccc3n2S(=O)(=O)c2ccccc2F)C1 (configuration not stated)	24	78	–
O=S(=O)(c1cc2ccccc2n1S(=O)(=O)c1cccnc1)N1CCC(CNS(=O)(=O)C(F)(F)F)CC1	139	41	–
C[C@@H](NS(=O)(=O)C(F)(F)F)c1ccc(S(=O)(=O)c2cc3ccccc3n2S(=O)(=O)c2ccccc2F)cc1	1340	7.5	–
O=S(=O)(c1cc2ccccc2n1S(=O)(=O)c1ccccc1F)N1CCCC(CCNS(=O)(=O)C(F)(F)F)C1 (configuration not stated)	3	258	–
C[C@@H](NS(=O)(=O)C(F)(F)F)c1ccc(S(=O)(=O)n2cccc2S(=O)(=O)c2ccccc2F)cc1	962	8.4	–
Cn1c(S(=O)(=O)c2ccccc2F)c(S(=O)(=O)N2CCC(CNS(=O)(=O)C(F)(F)F)CC2)c2ccccc21	364	70	–
O=S(=O)(c1cc2ccccc2n1S(=O)(=O)c1ccccc1F)N1C[C@@H]2[C@@H](CNS(=O)(=O)C(F)(F)F)[C@@H]2C1	279	9	–
O=S(=O)(c1cc2ccccc2n1S(=O)(=O)c1ccccc1F)N1CCC2(CC1)C[C@@H]2NS(=O)(=O)C(F)(F)F	413	–	–

Now from value to molecule:

Ratio Ki [1]	Ki (Cannabinoid receptor 2) [nM]	AUC [2] [µM·h]	SMILES
2520	1.8	–	CCCC1(CNS(=O)(=O)C(F)(F)F)CCN(S(=O)(=O)c2cc3ccccc3n2S(=O)(=O)c2ccccc2F)CC1
4380	0.2	–	O=S(=O)(c1cc2ccccc2n1S(=O)(=O)c1ccccc1F)N1CCC(O)(CNS(=O)(=O)C(F)(F)F)CC1
4520	1.4	–	O=S(=O)(c1ccccc1F)c1occc1S(=O)(=O)N1CCC(CNS(=O)(=O)C(F)(F)F)CC1
6720	0.35	–	CC1(CNS(=O)(=O)C(F)(F)F)CCN(S(=O)(=O)c2cc3ccccc3n2S(=O)(=O)c2ccccc2F)CC1
5160	0.8	–	COc1ccc2c(c1)cc(S(=O)(=O)N1CCC(CNS(=O)(=O)C(F)(F)F)CC1)n2S(=O)(=O)c1ccccc1F
630	3.1	–	CC[C@]1(CNS(=O)(=O)C(F)(F)F)CCN(S(=O)(=O)c2cc3ccccc3n2S(=O)(=O)c2ccccc2F)C[C@H]1C
2690	4.4	–	C[C@@H](NS(=O)(=O)C(F)(F)F)c1ccc(S(=O)(=O)c2ccoc2S(=O)(=O)c2ccccc2F)cc1
9180	0.9	–	O=S(=O)(c1cc2ccccc2n1S(=O)(=O)c1ccccn1)N1CCC(CNS(=O)(=O)C(F)(F)F)CC1
9250	0.38	–	O=S(=O)(c1cc2ccccc2n1S(=O)(=O)c1ccccc1F)N1CCC(CNS(=O)(=O)C(F)(F)F)CC1
245	4.2	–	CC1(C)CN(S(=O)(=O)c2cc3ccccc3n2S(=O)(=O)c2ccccc2F)CCC1CNS(=O)(=O)C(F)(F)F (configuration not stated)
3500	0.4	4.56	O=S(=O)(c1cc2ccccc2n1S(=O)(=O)c1ccccn1)N1CCC2(CC1)C[C@@H]2NS(=O)(=O)C(F)(F)F
3200	2.5	3.19	COC1(CNS(=O)(=O)C(F)(F)F)CCN(S(=O)(=O)c2cc3cccnc3n2S(=O)(=O)c2ccccc2F)CC1
2800	0.4	3.77	CCC1(CNS(=O)(=O)C(F)(F)F)CCN(S(=O)(=O)c2cc3cc(F)ccc3n2S(=O)(=O)c2ccccc2F)CC1
6670	1.5	–	C[C@@H]1CN(S(=O)(=O)c2cc3ccccc3n2S(=O)(=O)c2ccccc2F)CC[C@@H]1CNS(=O)(=O)C(F)(F)F
2260	0.5	–	C[C@@H]1CN(S(=O)(=O)c2cc3ccccc3n2S(=O)(=O)c2ccccc2F)CC[C@H]1CNS(=O)(=O)C(F)(F)F
2080	0.4	–	CC(NS(=O)(=O)C(F)(F)F)C1CCN(S(=O)(=O)c2cc3ccccc3n2S(=O)(=O)c2ccccc2F)CC1 (configuration not stated)

Reference: ChEMBL document CHEMBL1268834, “Expansion of SAR studies on triaryl bis sulfone cannabinoid CB2 receptor ligands” (Bioorg Med Chem Lett, 2010)
